By IC50 is commonly meant the concentration at which inhibition is half-maximal. A word on the Ki: it is the equilibrium dissociation constant of an inhibitor or competing ligand from its target.

Our source for the IC50 and Ki values is ChEMBL document CHEMBL1909046, “DrugMatrix in vitro pharmacology data”.

Molecules are shown by their SMILES.

Assay [1] addresses Beta-1 adrenergic receptor (Homo sapiens, UniProt P08588). As to the kind of experiment: DRUGMATRIX: Adrenergic beta1 radioligand binding (ligand: [125I] Cyanopindolol). The format is cell membranes, CHO-K1, Membrane. As to conditions: cho-k1; Not Active = under 50% inhibition at 10 µM.
Assay [2] concerns the target C-C chemokine receptor type 2 (Homo sapiens, UniProt P41597). The format is cell membranes, CHO-K1, Membrane. Note: in other assays of this panel Not Active means under 50% inhibition at 10 µM.
The target in assay [3] is C-C chemokine receptor type 5 (Homo sapiens, UniProt P51681). The assay is classed as cell membranes, HEK293, Membrane. Note: in other assays of this panel Not Active means under 50% inhibition at 10 µM.
Assay [4] is described as follows: DRUGMATRIX: GABAA, Flunitrazepam, Central radioligand binding (ligand: [3H] Flunitrazepam). The assay is classed as cell membranes, Rattus norvegicus, Wistar, Brain, Membrane. The following applies: Not Active = under 50% inhibition at 10 µM.
Assay [5] can be described thus: DRUGMATRIX: Leukotriene, BLT (LTB4) radioligand binding (ligand: [3H]LTB4). The assay is classed as cell membranes, Membrane. As to conditions: u-937, Not Active = under 50% inhibition at 10 µM.

Sequence of C-C chemokine receptor type 5 (P51681 whole entry): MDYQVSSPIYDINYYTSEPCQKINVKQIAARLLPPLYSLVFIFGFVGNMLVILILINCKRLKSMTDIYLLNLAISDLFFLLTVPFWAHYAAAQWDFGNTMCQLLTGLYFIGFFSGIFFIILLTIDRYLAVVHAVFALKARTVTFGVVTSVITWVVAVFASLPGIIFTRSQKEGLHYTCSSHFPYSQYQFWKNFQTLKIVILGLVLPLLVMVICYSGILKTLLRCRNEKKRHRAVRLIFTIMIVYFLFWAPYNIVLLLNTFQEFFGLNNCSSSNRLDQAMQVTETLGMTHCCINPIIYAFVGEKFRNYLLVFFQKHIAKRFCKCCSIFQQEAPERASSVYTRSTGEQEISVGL
Sequence of Beta-1 adrenergic receptor (P08588 whole entry): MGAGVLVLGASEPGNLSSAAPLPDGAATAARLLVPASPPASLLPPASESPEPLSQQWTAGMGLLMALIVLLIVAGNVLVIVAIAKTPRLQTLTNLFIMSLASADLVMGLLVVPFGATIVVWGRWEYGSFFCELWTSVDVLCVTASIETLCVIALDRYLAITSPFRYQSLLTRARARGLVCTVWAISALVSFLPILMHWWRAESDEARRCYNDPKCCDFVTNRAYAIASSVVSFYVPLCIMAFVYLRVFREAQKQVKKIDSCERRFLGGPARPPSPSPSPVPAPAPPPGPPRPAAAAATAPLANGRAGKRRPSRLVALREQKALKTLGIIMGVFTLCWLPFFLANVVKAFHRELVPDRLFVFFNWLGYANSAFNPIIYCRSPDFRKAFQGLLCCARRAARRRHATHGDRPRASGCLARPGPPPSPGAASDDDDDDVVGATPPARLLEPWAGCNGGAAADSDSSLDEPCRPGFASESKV
Sequence of C-C chemokine receptor type 2 (P41597 whole entry): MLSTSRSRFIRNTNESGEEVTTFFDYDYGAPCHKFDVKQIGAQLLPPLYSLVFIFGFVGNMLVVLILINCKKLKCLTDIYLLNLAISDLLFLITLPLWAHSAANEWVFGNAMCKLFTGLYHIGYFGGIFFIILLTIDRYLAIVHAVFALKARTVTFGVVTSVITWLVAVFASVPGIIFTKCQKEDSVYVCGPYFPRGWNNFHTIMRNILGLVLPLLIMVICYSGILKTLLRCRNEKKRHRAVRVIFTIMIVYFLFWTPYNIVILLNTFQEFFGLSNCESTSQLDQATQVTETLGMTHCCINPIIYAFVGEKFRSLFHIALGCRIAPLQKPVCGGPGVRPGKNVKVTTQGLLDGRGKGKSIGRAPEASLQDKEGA

On to `CCN(CC)CCNC(=O)c1cc(Cl)c(N)cc1OC` [METOCLOPRAMIDE], for which the IC50 result in assay [1], in assay [2] (cho-k1), in assay [3] (hek293), in assay [4] and in assay [5] was “Not Active” each time. Also, the Ki result in assay [4] and in assay [5] was “Not Active” throughout.
`COC(=O)Nc1nc2ccc(C(=O)c3ccccc3)cc2[nH]1` [MEBENDAZOLE]: the IC50 result in assay [1], in assay [2] (cho-k1), in assay [3] (hek293), in assay [4] and in assay [5] was “Not Active” in each case. In addition, the Ki result in assay [4] and in assay [5] was “Not Active” throughout.
As to `Cc1ccnc(NS(=O)(=O)c2ccc(N)cc2)n1` [SULFAMERAZINE], the IC50 result in assay [1], in assay [2] (cho-k1), in assay [3] (hek293), in assay [4] and in assay [5] was “Not Active” each time. In addition, the Ki entry in assay [4] and in assay [5] was “Not Active” in each case.
`Cc1cccc(C)c1NC(=O)C(C)N` (configuration not stated) [TOCAINIDE]: the IC50 entry in assay [1], in assay [2] (cho-k1), in assay [3] (hek293), in assay [4] and in assay [5] was “Not Active” in each case. Besides, the Ki entry in assay [4] and in assay [5] was “Not Active” in each case.
With `CC#C[C@]1(O)CC[C@H]2[C@@H]3CCC4=CC(=O)CCC4=C3[C@@H](c3ccc(N(C)C)cc3)C[C@@]21C` [MIFEPRISTONE], the IC50 entry in assay [1], in assay [2] (cho-k1), in assay [3] (hek293), in assay [4] and in assay [5] was “Not Active” each time. Besides, the Ki entry in assay [4] and in assay [5] was “Not Active” in each case.
As to `C[C@]12CCC(=O)C[C@@H]1CC[C@@H]1[C@@H]2CC[C@]2(C)[C@@H](O)CC[C@@H]12` [STANOLONE], the IC50 result in assay [1], in assay [2] (cho-k1), in assay [3] (hek293), in assay [4] and in assay [5] was “Not Active” in each case. Moreover, the Ki entry in assay [4] and in assay [5] was “Not Active” in each case.
Take `C1CCN2C[C@@H]3C[C@@H](CN4CCCC[C@@H]34)[C@H]2C1` [SPARTEINE]: the half-inhibitory concentration (IC50) result in assay [1], in assay [2] (cho-k1), in assay [3] (hek293), in assay [4] and in assay [5] was “Not Active” throughout. In addition, the Ki entry in assay [4] and in assay [5] was “Not Active” throughout.
`CO[C@@H]1[C@@H](OC)[C@H](C)[C@@](O)(CC(=O)O)O[C@H]1[C@H](C)[C@H]1O[C@@]2(CC[C@@](C)([C@H]3CC[C@@](C)([C@@H]4O[C@@H]([C@H]5O[C@](C)(O)[C@H](C)C[C@@H]5C)C[C@@H]4O[C@@H]4C[C@H](OC)[C@@H](OC)[C@H](C)O4)O3)O2)C[C@H](O)[C@H]1C.N` [MADURAMICIN]: the IC50 result in assay [1], in assay [2] (cho-k1), in assay [3] (hek293), in assay [4] and in assay [5] was “Not Active” each time. Also, the inhibition constant Ki result in assay [4] and in assay [5] was “Not Active” in each case.
Consider `CC(N)C12CC3CC(CC(C3)C1)C2` (configuration not stated) [RIMANTADINE], for which the IC50 entry in assay [1], in assay [2] (cho-k1), in assay [3] (hek293), in assay [4] and in assay [5] was “Not Active” each time. For the same compound, the Ki entry in assay [4] and in assay [5] was “Not Active” throughout.
Turning to `CCN(CC)C(=S)SSC(=S)N(CC)CC`, the half-maximal inhibitory concentration (IC50) result in assay [1] was “Not Active”; in assay [2] (read-out: IC50), 2.47 µM; in assay [3] (read-out: IC50) it was 23.7 µM; in assay [4], “Not Active”; in assay [5] (read-out: IC50) it was 29.9 µM. Also, the Ki is 0.954 µM in assay [2] (read-out: Ki), 18.3 µM in assay [3] (read-out: Ki), “Not Active” in assay [4] and 7.58 µM in assay [5] (read-out: Ki).
